Experimental data: patent US9850283B2, “Macrocyclic inhibitors of the PD-1/PD-L1 and CD80(B7-1)/PD-L1 protein/protein interactions” (BRISTOL-MYERS SQUIBB COMPANY, priority 2013, dated 2017)
Positions of bridges follow the written chain, without caps; N, C: chain ends. Non-standard residues stand in square brackets, D forms with d. Residues, ends and D or L forms follow the SMILES beside them. Phe(3,4-(OMe)2) = COc1ccc(C[C@H](N)C(=O)O)cc1OC; 2Nal = N[C@@H](Cc1ccc2ccccc2c1)C(=O)O; NMeF = CN[C@@H](Cc1ccccc1)C(=O)O; NMeNle = CCCC[C@H](NC)C(=O)O; Sar = CNCC(=O)O

Legend:
[1] = target: T1, LK35.2-hPD-L1 cells / PE-labeled PD-1-Ig (Homo sapiens, UniProt Q9NZQ7); test: LK35.2-hPD-L1 cell binding high-content screening assay; format: cell-based; settings: cell binding assay, cell line not given; cluster symbol; read-out: CBA IC50 cluster
T1 construct: expressed in transfected cells; host or cells: LK35.2 mouse B cell line
T1 sequence (Q9NZQ7 19-290): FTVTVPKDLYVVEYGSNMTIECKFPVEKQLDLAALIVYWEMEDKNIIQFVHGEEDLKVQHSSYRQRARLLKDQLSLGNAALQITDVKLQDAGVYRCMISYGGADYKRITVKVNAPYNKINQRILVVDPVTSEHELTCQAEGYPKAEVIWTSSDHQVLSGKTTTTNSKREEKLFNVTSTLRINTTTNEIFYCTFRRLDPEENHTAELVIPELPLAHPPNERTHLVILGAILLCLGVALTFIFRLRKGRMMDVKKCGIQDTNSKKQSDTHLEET
Summary of the method: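 Fluorescent PD-1-Ig binding to PD-L1-expressing LK35.2 cells, imaged after washing. Conditions: 1 nM PE-PD-1-Ig, 37 °C, 1 h, RPMI with 10% fetal calf serum.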

Human PD-L1/PD-1 = target: T2, Human PD-L1/PD-1 (Homo sapiens, UniProt Q9NZQ7); test: HTRF PD-1-Ig/PD-L1-His binding assay (human PD-L1); settings: cluster symbol; read-out: HTRF IC50 cluster
T2 construct: made in house; host or cells: HEK293T
T2 sequence (Q9NZQ7 with tags, fused parts or gaps): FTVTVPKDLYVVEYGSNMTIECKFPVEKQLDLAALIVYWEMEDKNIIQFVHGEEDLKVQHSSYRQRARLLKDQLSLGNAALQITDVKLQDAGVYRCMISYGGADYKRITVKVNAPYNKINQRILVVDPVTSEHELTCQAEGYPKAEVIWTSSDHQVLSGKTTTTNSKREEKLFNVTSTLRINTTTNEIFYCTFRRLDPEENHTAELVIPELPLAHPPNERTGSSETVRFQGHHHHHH
Summary of the method: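 Soluble Fc-fused PD-1 and His-tagged PD-L1 (truncated before the transmembrane region) were combined in dPBS with 0.1% (w/v) BSA and 0.05% (v/v) Tween-20. Binding was read by HTRF using europium cryptate anti-Ig antibody (1 nM final) and APC anti-His antibody (20 nM final).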

| SMILES | IC50 [1] [nM] | IC50 (Human PD-L1/PD-1) [nM] |
| --- | --- | --- |
| CCCC[C@H]1C(=O)N(C)CC(=O)N[C@@H](CC(=O)O)C(=O)N[C@@H](C(C)C)C(=O)N(C)[C@@H](Cc2ccccc2)C(=O)N[C@@H](Cc2ccc(O)cc2)C(=O)N(C)CC(=O)N[C@@H](Cc2c[nH]c3ccccc23)C(=O)N[C@@H](Cc2ccc3ccccc3c2)C(=O)N[C@@H](CC(C)C)C(=O)N[C@H](C(=O)NCC(N)=O)CSCC(=O)N[C@@H](Cc2ccccc2)C(=O)N(C)[C@@H](Cc2ccccc2)C(=O)N1C [Example 3538] ({CH2CO}-F[NMeF][NMeNle][Sar]DV[NMeF]Y[Sar]W[2Nal]LCG-NH2; thioether N-13) | > 74.3 | > 30.5 |
| CCCC[C@H]1C(=O)N(C)CC(=O)N[C@@H](CC(=O)O)C(=O)N[C@@H](C(C)C)C(=O)N(C)[C@@H](Cc2ccccc2)C(=O)N[C@@H](Cc2ccc(O)cc2)C(=O)N(C)CC(=O)N[C@@H](Cc2c[nH]c3ccccc23)C(=O)N[C@@H](Cc2c[nH]c3ccccc23)C(=O)N[C@@H](CC(C)C)C(=O)N[C@H](C(=O)NCC(N)=O)CSCC(=O)N[C@@H](Cc2ccccc2)C(=O)N(C)[C@@H](Cc2ccccc2)C(=O)N1C [Example 3539] (HELM PEPTIDE1{[O=C(C[*:3])[*:2]].F.[meF].[CCCC[C@@H](C(=O)[*:2])N(C)[*:1]].[Sar].D.V.[meF].Y.[Sar].W.W.L.C.G.[am]}$PEPTIDE1,PEPTIDE1,1:R3-14:R3$$$V2.0) | > 74.3 | > 30.5 |
| CCCC[C@H]1C(=O)N(C)CC(=O)N[C@@H](CC(=O)O)C(=O)N[C@@H](C(C)C)C(=O)N(C)[C@@H](Cc2ccccc2)C(=O)N[C@@H](Cc2ccc(O)cc2)C(=O)N(C)CC(=O)N[C@@H](Cc2c[nH]c3ccccc23)C(=O)N[C@@H](Cc2ccccc2)C(=O)N[C@@H](CC(C)C)C(=O)N[C@H](C(=O)NCC(N)=O)CSCC(=O)N[C@@H](Cc2ccccc2)C(=O)N(C)[C@@H](Cc2ccccc2)C(=O)N1C [Example 3540] (HELM PEPTIDE1{[O=C(C[*:3])[*:2]].F.[meF].[CCCC[C@@H](C(=O)[*:2])N(C)[*:1]].[Sar].D.V.[meF].Y.[Sar].W.F.L.C.G.[am]}$PEPTIDE1,PEPTIDE1,1:R3-14:R3$$$V2.0) | > 74.3 | > 30.5 |
| CCCC[C@H]1C(=O)N(C)CC(=O)N[C@@H](CC(=O)O)C(=O)N[C@@H](C(C)C)C(=O)N(C)[C@@H](Cc2ccccc2)C(=O)N[C@@H](Cc2ccc(O)cc2)C(=O)N(C)CC(=O)N[C@@H](Cc2c[nH]c3ccccc23)C(=O)N[C@@H](Cc2ccc(OC)c(OC)c2)C(=O)N[C@@H](CC(C)C)C(=O)N[C@H](C(=O)NCC(N)=O)CSCC(=O)N[C@@H](Cc2ccccc2)C(=O)N(C)[C@@H](Cc2ccccc2)C(=O)N1C [Example 3541] ({CH2CO}-F[NMeF][NMeNle][Sar]DV[NMeF]Y[Sar]W[Phe(3,4-(OMe)2)]LCG-NH2; thioether N-13) | > 74.3 | > 30.5 |
| CCCC[C@H]1C(=O)N(C)CC(=O)N[C@@H](CC(=O)O)C(=O)N[C@@H](C(C)C)C(=O)N(C)[C@@H](Cc2ccccc2)C(=O)N[C@@H](CCCNC(=N)N)C(=O)N(C)CC(=O)N[C@@H](Cc2c[nH]c3ccccc23)C(=O)N[C@@H](Cc2ccc(O)cc2)C(=O)N[C@@H](CCC(=O)O)C(=O)N[C@H](C(=O)NCC(N)=O)CSCC(=O)N[C@@H](Cc2ccccc2)C(=O)N(C)[C@@H](Cc2ccccc2)C(=O)N1C [Example 3542] (HELM PEPTIDE1{[O=C(C[*:3])[*:2]].F.[meF].[CCCC[C@@H](C(=O)[*:2])N(C)[*:1]].[Sar].D.V.[meF].R.[Sar].W.Y.E.C.G.[am]}$PEPTIDE1,PEPTIDE1,1:R3-14:R3$$$V2.0) | 4.78 to 72.9 | 6.76 to 30.3 |
